Reference: PMC10082216 (Nature Communications, 2023)
Where two headings read alike, the source gives them in different places.

Assay: TD-6450 phase I clinical study (SAD/MAD): pharmacokinetics
Assay type: in vivo, human
Details: human; for TD-6450 Concentration (ng/ml), Female subjects: in vivo; for TD-6450 Concentration (ng/ml), Female subjects / concentration at 1 h / concentration at 2 h / concentration at 3 h / concentration at 4 h / concentration at 6 h / concentration at 8 h / concentration at 12 h / concentration at 15 min / concentration at 24 h / concentration at 30 min / concentration at 48 h / concentration at 72 h / concentration at 96 h / concentration at 120 h / concentration at 144 h / concentration at 168 h: female; for concentration at 1 h / concentration at 2 h / concentration at 3 h / concentration at 4 h / concentration at 6 h / concentration at 8 h / concentration at 12 h / concentration at 15 min / concentration at 24 h / concentration at 30 min / concentration at 48 h / concentration at 72 h / concentration at 96 h / concentration at 120 h / concentration at 144 h / concentration at 168 h: Female subjects, read-out: Concentration
Protocol: Primary and secondary outcomes were pre-defined as follows: Safety and tolerability as a primary outcome, pharmacokinetics as a secondary outcome. Safety and tolerability were evaluated using standard measures, including adverse event (AE) monitoring, clinical laboratory tests (hematology, serum chemistry, coagulation, and urinalysis), vital signs, physical examinations, and 12-lead electrocardiograms (ECGs). […]
This study was conducted in two parts, Part A (SAD) and Part B (MAD). For the Part A, the age of enrolled subjects ranged from 20 to 60 years, with a mean age range of 32.1 to 46.2 years. Most subjects were male (73 total subjects) and most were white (55 subjects) or black (22 subjects). For Part B of the study, ages ranged from 23 to 60 years with a similar mean age across treatment groups. Most subjects were male (25 total subjects) and all were either white (18 subjects) or black (12 subjects). For each part of the study, the mean body mass index (BMI) and creatinine clearance were similar across treatment groups. […] Part A: Healthy subjects were sequentially enrolled and randomly assigned to each dose cohort (up to 10 dose-ascending cohorts were planned, including a fed arm in the food effect cohort) to receive either a single dose of TD-6450 or placebo. For each dose cohort, 8 subjects were randomized in a 3:1 ratio (6 subjects received TD-6450 and 2 subjects received placebo). The starting dose of TD-6450 was 0.5 mg with a planned maximum dose of 1000 mg. Upon review of the 500-mg cohort PK data, the decision was made to not escalate to the 1000-mg cohort because of exposure saturation at ≥ 500 mg. The following doses were administered: 0.5 mg, 1.5 mg, 5 mg, 15 mg, 30 mg, 60 mg, 120 mg, 240 mg, and 500 mg. Part B: Healthy subjects were sequentially enrolled in 3 ascending dose cohorts (TD-6450 60 mg, 120 mg, and 240 mg) and randomly assigned to receive either TD-6450 or placebo as once daily doses for 14 days. For each dose cohort, 10 subjects were randomized in a 4:1 ratio (8 subjects received TD-6450 and 2 subjects received placebo). Blinded safety, tolerability, and available PK data after each dose cohort were reviewed by the Safety Data Review Committee (SDRC) before escalation to the next dosing cohort for both part A and B. Subjects of the clinical study were randomly assigned to each cohort. Randomizations codes were assigned to the subjects. All study subjects, study investigators, and the sponsor’s staff involved in the conduct of the study were blinded to treatment assignment. The only personnel who had access to the randomization code before database lock were: The pharmacist or pharmacy staff member who prepared drug or placebo capsules for administration to the subject according to the randomization code and the bioanalytical contract laboratory that analyzed the PK samples (plasma and urine).

CNC(=O)N1C[C@@H](C)N(c2ccc(C(=O)Nc3ccc(-c4ccc(-c5c[nH]c([C@@H]6CCCN6C(=O)[C@@H](NC(=O)OC)C(C)C)n5)cc4)c(OC(F)(F)F)c3)cn2)C[C@@H]1C [TD-6450]
Cmax at 1 day (both sexes, plasma, oral, 120 mg, MAD 120 mg, day 1, read-out: Cmax Mean ± SD, D1): 216 ± 58 nM | Cmax at 14 day (both sexes, plasma, oral, 120 mg, MAD 120 mg, day 14, read-out: Cmax Mean ± SD, D14): 1010 ± 349 nM | half-life at 14 day (both sexes, plasma, oral, 120 mg, MAD 120 mg, day 14, read-out: t1/2 Mean ± SD, D14 (converted)): 66.4 ± 15 h | Cmax (both sexes, plasma, oral, 120 mg, SAD 120 mg, read-out: Cmax Mean ± SD): 174 ± 93.9 nM | half-life (both sexes, plasma, oral, 120 mg, SAD 120 mg, read-out: t1/2 Mean ± SD (converted)): 78.4 ± 13 h | Cmax (both sexes, plasma, oral, 240 mg, MAD 240 mg, day 1, read-out: Cmax Mean ± SD, D1): 459 ± 203 nM | Cmax (both sexes, plasma, oral, 240 mg, MAD 240 mg, day 14, read-out: Cmax Mean ± SD, D14): 1770 ± 218 nM | half-life (both sexes, plasma, oral, 240 mg, MAD 240 mg, day 14, read-out: t1/2 Mean ± SD, D14 (converted)): 59.8 ± 12 h | Cmax (both sexes, plasma, oral, 240 mg, SAD 240 mg, read-out: Cmax Mean ± SD): 278 ± 134 nM | half-life (both sexes, plasma, oral, 240 mg, SAD 240 mg, read-out: t1/2 Mean ± SD (converted)): 64.7 ± 7.7 h | Cmax (both sexes, plasma, oral, 500 mg, SAD 500 mg, read-out: Cmax Mean ± SD): 244 ± 114 nM | half-life (both sexes, plasma, oral, 500 mg, SAD 500 mg, read-out: t1/2 Mean ± SD (converted)): 54.9 ± 5.5 h | TD-6450 Concentration (ng/ml), Female subjects (4 h): 48.60 ng/mL | TD-6450 Concentration (ng/ml), Female subjects (6 h): 213.00 ng/mL | TD-6450 Concentration (ng/ml), Female subjects (8 h): 215.00 ng/mL | concentration at 1 h (plasma, oral, 0.5 mg, SAD arm NCT02022306, Dose 0.50, 1 Hour): 0 ng/mL | concentration at 2 h (plasma, oral, 0.5 mg, SAD arm NCT02022306, Dose 0.50, 2 Hours): 0 ng/mL | concentration at 3 h (plasma, oral, 0.5 mg, SAD arm NCT02022306, Dose 0.50, 3 Hours): 0.52 ng/mL | concentration at 4 h (plasma, oral, 0.5 mg, SAD arm NCT02022306, Dose 0.50, 4 Hours): 0.48 ng/mL | concentration at 6 h (plasma, oral, 0.5 mg, SAD arm NCT02022306, Dose 0.50, 6 Hours): 0.67 ng/mL | concentration at 8 h (plasma, oral, 0.5 mg, SAD arm NCT02022306, Dose 0.50, 8 Hours): 0.31 ng/mL | concentration at 12 h (plasma, oral, 0.5 mg, SAD arm NCT02022306, Dose 0.50, 12 Hours): 0 ng/mL | concentration at 15 min (plasma, oral, 0.5 mg, SAD arm NCT02022306, Dose 0.50, 15 Minutes): 0 ng/mL | concentration at 24 h (plasma, oral, 0.5 mg, SAD arm NCT02022306, Dose 0.50, 24 Hours): 0 ng/mL | concentration at 30 min (plasma, oral, 0.5 mg, SAD arm NCT02022306, Dose 0.50, 30 Minutes): 0 ng/mL | concentration at 48 h (plasma, oral, 0.5 mg, SAD arm NCT02022306, Dose 0.50, 48 Hours): 0.26 ng/mL | concentration at 72 h (plasma, oral, 0.5 mg, SAD arm NCT02022306, Dose 0.50, 72 Hours): 0.28 ng/mL | concentration at 96 h (plasma, oral, 0.5 mg, SAD arm NCT02022306, Dose 0.50, 96 Hours): 0 ng/mL | concentration at 120 h (plasma, oral, 0.5 mg, SAD arm NCT02022306, Dose 0.50, 120 Hours): 0 ng/mL | concentration at 144 h (plasma, oral, 0.5 mg, SAD arm NCT02022306, Dose 0.50, 144 Hours): 0 ng/mL | concentration at 168 h (plasma, oral, 0.5 mg, SAD arm NCT02022306, Dose 0.50, 168 Hours): 0 ng/mL | concentration at 1 h (plasma, oral, 5 mg, SAD arm NCT02022306, Dose 5.00, 1 Hour): 0.91 ng/mL | concentration at 2 h (plasma, oral, 5 mg, SAD arm NCT02022306, Dose 5.00, 2 Hours): 2.32 ng/mL | concentration at 3 h (plasma, oral, 5 mg, SAD arm NCT02022306, Dose 5.00, 3 Hours): 3.81 ng/mL | concentration at 4 h (plasma, oral, 5 mg, SAD arm NCT02022306, Dose 5.00, 4 Hours): 4.11 ng/mL | concentration at 6 h (plasma, oral, 5 mg, SAD arm NCT02022306, Dose 5.00, 6 Hours): 4.27 ng/mL | concentration at 8 h (plasma, oral, 5 mg, SAD arm NCT02022306, Dose 5.00, 8 Hours): 3.7 ng/mL | concentration at 12 h (plasma, oral, 5 mg, SAD arm NCT02022306, Dose 5.00, 12 Hours): 3.01 ng/mL | concentration at 15 min (plasma, oral, 5 mg, SAD arm NCT02022306, Dose 5.00, 15 Minutes): 0 ng/mL | concentration at 24 h (plasma, oral, 5 mg, SAD arm NCT02022306, Dose 5.00, 24 Hours): 2.55 ng/mL | concentration at 30 min (plasma, oral, 5 mg, SAD arm NCT02022306, Dose 5.00, 30 Minutes): 0 ng/mL | concentration at 48 h (plasma, oral, 5 mg, SAD arm NCT02022306, Dose 5.00, 48 Hours): 2.13 ng/mL | concentration at 72 h (plasma, oral, 5 mg, SAD arm NCT02022306, Dose 5.00, 72 Hours): 1.75 ng/mL | concentration at 96 h (plasma, oral, 5 mg, SAD arm NCT02022306, Dose 5.00, 96 Hours): 1.15 ng/mL | concentration at 144 h (plasma, oral, 5 mg, SAD arm NCT02022306, Dose 5.00, 144 Hours): 0.77 ng/mL | concentration at 168 h (plasma, oral, 5 mg, SAD arm NCT02022306, Dose 5.00, 168 Hours): 0.61 ng/mL | concentration at 1 h (plasma, oral, 15 mg, SAD arm NCT02022306, Dose 15.00, 1 Hour): 1.46 ng/mL | concentration at 2 h (plasma, oral, 15 mg, SAD arm NCT02022306, Dose 15.00, 2 Hours): 10.1 ng/mL | concentration at 3 h (plasma, oral, 15 mg, SAD arm NCT02022306, Dose 15.00, 3 Hours): 13.9 ng/mL | concentration at 4 h (plasma, oral, 15 mg, SAD arm NCT02022306, Dose 15.00, 4 Hours): 18 ng/mL | concentration at 6 h (plasma, oral, 15 mg, SAD arm NCT02022306, Dose 15.00, 6 Hours): 18.1 ng/mL | concentration at 8 h (plasma, oral, 15 mg, SAD arm NCT02022306, Dose 15.00, 8 Hours): 15.1 ng/mL | concentration at 12 h (plasma, oral, 15 mg, SAD arm NCT02022306, Dose 15.00, 12 Hours): 10.7 ng/mL | concentration at 15 min (plasma, oral, 15 mg, SAD arm NCT02022306, Dose 15.00, 15 Minutes): 0 ng/mL | concentration at 24 h (plasma, oral, 15 mg, SAD arm NCT02022306, Dose 15.00, 24 Hours): 9.09 ng/mL | concentration at 30 min (plasma, oral, 15 mg, SAD arm NCT02022306, Dose 15.00, 30 Minutes): 0 ng/mL | concentration at 48 h (plasma, oral, 15 mg, SAD arm NCT02022306, Dose 15.00, 48 Hours): 6.98 ng/mL | concentration at 72 h (plasma, oral, 15 mg, SAD arm NCT02022306, Dose 15.00, 72 Hours): 5.88 ng/mL | concentration at 96 h (plasma, oral, 15 mg, SAD arm NCT02022306, Dose 15.00, 96 Hours): 5.19 ng/mL | concentration at 120 h (plasma, oral, 15 mg, SAD arm NCT02022306, Dose 15.00, 120 Hours): 4.42 ng/mL
